From patent US8865909B2, “Anti-biofilm agents” (Yissum Research Development Company of the Hebrew …, priority 2008, dated 2014) come the findings set out here.

The subject of one data set is V. harveyi strains. As to the kind of experiment: Quorum sensing inhibition (luminescence), planktonic conditions. It counts as cell-based. As to conditions: BB120, BB170, BB886, BB721, JAF375, with AI-1, AI-2 or AI-0 spent medium. Here is the method:
Mutant strains of V. harveyi, which are impaired at different locations of the quorum sensing (QS) cascade (see, Table 1 hereinabove) were used for the QSI assays. Bacteria were grown to cell density of 1.5-2.5×10^9 CFU/ml (15-16 hours) in AB medium at 30° C. with constant shaking. The fresh cultures were then diluted 5000-fold in fresh AB medium containing TZD10, an exemplary ABF agent according to embodiments of the present invention, at concentrations of 0.02, 0.2, 20 and 200 μM. […]
The assay was conducted in white 96-well microtitraton plates with a clear bottom (NUNC, Denmark). Luminescence was measured continuously by a GENios reader (TECAN, Austria) every 30 minutes and the bacterial density was determined (O.D. 595 nm).
Each sample was tested in three separate biological experiments, each conducted in triplicate samples. The effect of the ABF agent was determined relatively to the endogenous level of luminescence expressed by V. harveyi BB120, BB721, BB170, BB886 and JAF375 relative to the OD, by calculating the area under the curve (AUC) between 3.5-7 hours, applying the trapezoid rule for AUC calculation.

A short description of data set [1]: Solubility observed in the Vero cell assay wells. It counts as physicochemical. As to conditions: at a concentration of 100 μg/ml and above; crystals at bottom of well.

As to `CCCCCCCCC/C=C1\SC(=O)NC1=O` [TZD10, (Z)-5-decylidenethiazolidine-2,4-dione], the “effect on quorum sensing (luminescence)” value with V. harveyi strains was “classic dose-response curve”. In addition, the solubility entry in data set [1] is “not completely soluble”.
